This assay deals with BoNT/A LC1-429 (Clostridium botulinum, UniProt P0DPI1). In words: biochemical. Conditions: BoNT/A Ki (nM).
Chain of BoNT/A LC1-429 (P0DPI1 1-429, added parts left off): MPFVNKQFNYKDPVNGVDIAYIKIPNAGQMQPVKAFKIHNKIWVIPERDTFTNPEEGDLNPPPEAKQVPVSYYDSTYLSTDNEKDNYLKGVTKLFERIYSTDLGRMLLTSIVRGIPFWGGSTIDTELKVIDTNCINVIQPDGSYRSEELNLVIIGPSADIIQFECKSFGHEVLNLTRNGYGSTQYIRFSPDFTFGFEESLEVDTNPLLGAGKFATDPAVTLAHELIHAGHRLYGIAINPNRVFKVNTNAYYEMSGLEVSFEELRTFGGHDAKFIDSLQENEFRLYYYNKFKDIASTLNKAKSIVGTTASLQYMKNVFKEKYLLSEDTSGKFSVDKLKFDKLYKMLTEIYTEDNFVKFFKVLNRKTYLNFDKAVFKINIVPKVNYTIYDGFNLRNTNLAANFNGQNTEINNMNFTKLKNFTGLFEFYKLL
A word on the Ki: it is the equilibrium dissociation constant of an inhibitor or competing ligand from its target. Lower therefore signals tighter binding. Regarding `CO[C@H](CC(=O)NO)[C@H](Cc1ccc(F)cc1)c1ccc(Br)cc1` [Example 1-3, (3R,4R)-4-(4-bromophenyl)-5-(4-fluorophenyl)-N-hydroxy-3-methoxypentanamide], affinity was put at a Ki of 9.36 nM.
In turn, `CCO[C@H](CC(=O)NO)[C@H](Cc1ccc(CO)cc1)c1ccc(F)cc1` [Example 1-9, (3R,4R)-3-ethoxy-4-(4-fluorophenyl)-N-hydroxy-5-(4-(hydroxymethyl)phenyl)pentanamide] showed an inhibition constant (Ki) of 299 nM.
Molecule `CO[C@H](CC(=O)NO)[C@H](Cc1ccc(F)cc1C)c1ccc(Br)cc1` [Example 2-1, (3R,4R)-4-(4-bromophenyl)-5-(4-fluoro-2-methylphenyl)-N-hydroxy-3-methoxypentanamide] had a Ki of 235 nM.
As for `CO[C@H](CC(=O)NO)[C@H](Cc1ccc(F)c(C)c1)c1ccc(Br)cc1` [Example 2-2, (3R,4R)-4-(4-bromophenyl)-5-(4-fluoro-3-methylphenyl)-N-hydroxy-3-methoxypentanamide], the figure is 3.4 nM.
Molecule `CO[C@@H](CC(=O)NO)[C@H](Cc1ccc(F)cc1C)c1ccc(Br)cc1` [Example 2-3, (3S,4R)-4-(4-bromophenyl)-5-(4-fluoro-2-methylphenyl)-N-hydroxy-3-methoxypentanamide] showed a Ki of 4860 nM. This Ki is about 1400-fold higher than that of the molecule before.
In turn, `CO[C@@H](CC(=O)NO)[C@H](Cc1ccc(F)c(C)c1)c1ccc(Br)cc1` [Example 2-4, (3S,4R)-4-(4-bromophenyl)-5-(4-fluoro-3-methylphenyl)-N-hydroxy-3-methoxypentanamide] yielded a Ki of 145 nM. Compared with the last molecule, the Ki is about 34-fold lower.
As for `CCO[C@H](CC(=O)NO)[C@H](Cc1ccc(Cl)cc1)c1ccccc1` [Example 3-1, (3R,4R)-5-(4-chlorophenyl)-3-ethoxy-N-hydroxy-4-phenylpentanamide], the figure is 15.5 nM; as for `O=C(CC[C@H](Cc1ccc(Cl)cc1)c1ccccc1)NO` [Example 3-2], 2700 nM; as for `O=C(CC[C@H](Cc1ccc(Cl)cc1)c1ccc(Br)cc1)NO` [Example 3-3], 915 nM.
As for `CO[C@H](CC(=O)NO)[C@H](Cc1ccc(Cl)cc1)c1ccc(Cl)cc1` [Example 3-4, (3R,4R)-4,5-bis(4-chlorophenyl)-N-hydroxy-3-methoxypentanamide], the figure is 4.8 nM.
As for `CO[C@H](CC(=O)NO)[C@H](Cc1ccc(Cl)cc1)c1ccc(F)cc1` [Example 3-5, (3R,4R)-5-(4-chlorophenyl)-4-(4-fluorophenyl)-N-hydroxy-3-methoxypentanamide], the affinity corresponds to a Ki of 5.2 nM.
As for `CCO[C@H](CC(=O)NO)[C@H](Cc1ccc(Cl)cc1)c1ccc(Br)cc1` [Example 3-6, (3R,4R)-4-(4-bromophenyl)-5-(4-chlorophenyl)-3-ethoxy-N-hydroxypentanamide], the figure is 2 ± 0.42 nM; as for `CCO[C@@H](CC(=O)NO)[C@H](Cc1ccc(Cl)cc1)c1ccc(Br)cc1` [Example 3-7, (3S,4R)-4-(4-bromophenyl)-5-(4-chlorophenyl)-3-ethoxy-N-hydroxypentanamide], 73 nM; as for `CO[C@H](CC(=O)NO)[C@H](Cc1ccc(Cl)cc1)c1ccc(Br)cc1` [Example 3-8, (3R,4R)-4-(4-bromophenyl)-5-(4-chlorophenyl)-N-hydroxy-3-methoxypentanamide], 1.75 nM.
`C=Cc1ccc([C@@H](Cc2ccc(Cl)cc2)[C@@H](CC(=O)NO)OCC)cc1` [Example 3-9, (3R,4R)-5-(4-chlorophenyl)-3-ethoxy-N-hydroxy-4-(4-vinylphenyl)pentanamide] came in with a Ki of 3.2 nM. Against the preceding molecule, the Ki is about 1.8-fold higher.
`CCO[C@H](CC(=O)NO)[C@H](Cc1ccc(Cl)cc1)c1ccc(CO)cc1` [Example 3-10, (3R,4R)-5-(4-chlorophenyl)-3-ethoxy-N-hydroxy-4-(4-(hydroxymethyl)phenyl)pentanamide] yielded a Ki of 2.7 nM. This Ki and that of the molecule before are within 1.5-fold of each other.
As for `CO[C@H](CC(=O)NO)[C@H](Cc1ccc(Cl)cc1)c1ccc(CO)cc1` [Example 3-11, (3R,4R)-5-(4-chlorophenyl)-N-hydroxy-4-(4-(hydroxymethyl)phenyl)-3-methoxypentanamide], the figure is 9.7 nM.
In the case of `CCO[C@H](CC(=O)NO)[C@H](Cc1ccc(Cl)cc1)c1ccc(C2(C)CO2)cc1` (stereo partly drawn) [Example 3-12, (3R,4R)-5-(4-chlorophenyl)-3-ethoxy-N-hydroxy-4-(4-(2-methyloxiran-2-yl)phenyl)pentanamide], the Ki turned out to be 9.6 nM.
Molecule `CCCCOCc1ccc([C@@H](Cc2ccc(Cl)cc2)[C@@H](CC(=O)NO)OC)cc1` [Example 3-13] returned a Ki of 24.9 nM.
With `CCO[C@H](CC(=O)NO)[C@H](Cc1ccc(Cl)cc1)c1ccc(COCOC)cc1` [Example 3-14], the Ki turned out to be 21.2 nM.
`CCO[C@H](CC(=O)NO)[C@H](Cc1ccc(Cl)cc1)c1ccc(COCOCCOC)cc1` [Example 3-15] returned an inhibitory constant (Ki) of 30 nM.
For `CCO[C@H](CC(=O)NO)[C@H](Cc1ccc(Cl)cc1)c1ccc(CN2CCOCC2)cc1` [Example 3-16, (3R,4R)-5-(4-chlorophenyl)-3-ethoxy-N-hydroxy-4-(4-(morpholinomethyl)phenyl) pentanamide], the affinity, expressed as Ki, was 10.1 ± 2.4 nM.
In turn, `CCO[C@H](CC(=O)NO)[C@H](Cc1ccc(Cl)cc1)c1ccc(CN2CCN(C(=O)OC(C)(C)C)CC2)cc1` [Example 3-17, tert-butyl 4-(4-((2R,3R)-1-(4-chlorophenyl)-3-ethoxy-5-(hydroxyamino)-5-oxopentan-2-yl)benzyl)piperazine-1-carboxylate] returned a Ki of 8.5 nM.
In turn, `CCO[C@H](CC(=O)NO)[C@H](Cc1ccc(Cl)cc1)c1ccc(CN2CCNCC2)cc1` [Example 3-18, (3R,4R)-5-(4-chlorophenyl)-3-ethoxy-N-hydroxy-4-(4-(piperazin-1-ylmethyl)phenyl)pentanamide] returned a Ki of 13.5 ± 2.8 nM. This Ki is about 1.6-fold higher than that of the molecule before.
Molecule `CCO[C@H](CC(=O)NO)[C@H](Cc1ccc(Cl)cc1)c1ccc(CN2CCCCC2)cc1` [Example 3-19, (3R,4R)-5-(4-chlorophenyl)-3-ethoxy-N-hydroxy-4-(4-(piperidin-1-ylmethyl)phenyl)pentanamide] had a Ki of 19.5 nM. The Ki values of the last two molecules are within 1.5-fold of each other.
With `CO[C@H](CC(=O)NO)[C@H](Cc1ccc(Cl)cc1)c1ccc(CN2CCCCC2)cc1` [Example 3-20, (3R,4R)-5-(4-chlorophenyl)-N-hydroxy-3-methoxy-4-(4-(piperidin-1-ylmethyl)phenyl)pentanamide], the affinity, expressed as Ki, was 37 nM. Compared with the last molecule, the Ki is about 1.9-fold higher.
`CCO[C@H](CC(=O)NO)[C@H](Cc1ccc(Cl)cc1)c1ccc(N(C)CCO)cc1` [Example 3-21, (3R,4R)-5-(4-chlorophenyl)-3-ethoxy-N-hydroxy-4-(4-((2-hydroxyethyl)(methyl)amino)phenyl)pentanamide] displayed a Ki of 8.5 nM.
As for `CCO[C@H](CC(=O)NO)[C@H](Cc1ccc(Cl)cc1)c1ccc(N2CCNCC2)cc1` [Example 3-22, (3R,4R)-5-(4-chlorophenyl)-3-ethoxy-N-hydroxy-4-(4-(piperazin-1-yl)phenyl)pentanamide], the figure is 13.5 nM; as for `CCO[C@H](CC(=O)NO)[C@H](Cc1ccc(Cl)cc1)c1ccc(N2CCOCC2)cc1` [Example 3-23, (3R,4R)-5-(4-chlorophenyl)-3-ethoxy-N-hydroxy-4-(4-morpholinophenyl)pentanamide], 10 nM.
`CCO[C@H](CC(=O)NO)[C@H](Cc1ccc(Cl)cc1)c1ccc(-c2cccn2C(=O)OC(C)(C)C)cc1` [Example 3-24, tert-butyl 2-(4-((2R,3R)-1-(4-chlorophenyl)-3-ethoxy-5-(hydroxyamino)-5-oxopentan-2-yl)phenyl)-1H-pyrrole-1-carboxylate] gave a Ki of 8.8 nM.
`CCO[C@H](CC(=O)NO)[C@H](Cc1ccc(Cl)cc1)c1ccc(-c2ccc[nH]2)cc1` [Example 3-25, (3R,4R)-4-(4-(1H-pyrrol-2-yl)phenyl)-5-(4-chlorophenyl)-3-ethoxy-N-hydroxypentanamide] came in with a Ki of 8 nM.
With `CCO[C@H](CC(=O)NO)[C@H](Cc1ccc(Cl)cc1)c1ccc(-c2cncnc2)cc1` [Example 3-26, (3R,4R)-5-(4-chlorophenyl)-3-ethoxy-N-hydroxy-4-(4-(pyrimidin-5-yl)phenyl)pentanamide], the affinity corresponds to a Ki of 3.7 nM.
For `CCO[C@H](CC(=O)NO)[C@H](Cc1ccc(Cl)cc1)c1ccc(-c2cnc(N(C)C)nc2)cc1` [Example 3-27, (3R,4R)-5-(4-chlorophenyl)-4-(4-(2-(dimethylamino)pyrimidin-5-yl)phenyl)-3-ethoxy-N-hydroxypentanamide], the affinity corresponds to a Ki of 5.3 nM.
As for `CCO[C@H](CC(=O)NO)[C@H](Cc1ccc(Cl)cc1)c1ccc(-c2c(C)nn(C)c2C)cc1` [Example 3-28, (3R,4R)-5-(4-chlorophenyl)-3-ethoxy-N-hydroxy-4-(4-(1,3,5-trimethyl-1H-pyrazol-4-yl)phenyl)pentanamide], the figure is 3.7 nM; as for `CCO[C@H](CC(=O)NO)[C@H](Cc1ccc(Cl)cc1)c1ccc(-n2ccnc2)cc1` [Example 3-29, (3R,4R)-4-(4-(1H-imidazol-1-yl)phenyl)-5-(4-chlorophenyl)-3-ethoxy-N-hydroxypentanamide], 3.6 nM.
For `CCO[C@H](CC(=O)NO)[C@H](Cc1ccc(Cl)cc1)c1ccc(-c2ccncc2)cc1` [Example 3-30, (3R,4R)-5-(4-chlorophenyl)-3-ethoxy-N-hydroxy-4-(4-(pyridin-4-yl)phenyl)pentanamide], the affinity corresponds to a Ki of 4.5 nM. The Ki values of the last two molecules are within 1.5-fold of each other.
With `CCO[C@H](CC(=O)NO)[C@H](Cc1ccc(Cl)cc1)c1ccc(C(=O)NO)cc1` [Example 4-1, 4-((2R,3R)-1-(4-chlorophenyl)-3-ethoxy-5-(hydroxyamino)-5-oxopentan-2-yl)-N-hydroxybenzamide] the figure was 10.5 nM; with `CCCN(CCC)C(=O)c1ccc([C@@H](Cc2ccc(Cl)cc2)[C@@H](CC(=O)NO)OCC)cc1` [Example 4-2, 4-((2R,3R)-1-(4-chlorophenyl)-3-ethoxy-5-(hydroxyamino)-5-oxopentan-2-yl)-N,N-dipropylbenzamide], 3.9 nM.
`CCO[C@H](CC(=O)NO)[C@H](Cc1ccc(Cl)cc1)c1ccc(C(=O)N2CCCCC2)cc1` [Example 4-3, (3R,4R)-5-(4-chlorophenyl)-3-ethoxy-N-hydroxy-4-(4-(piperidine-1-carbonyl)phenyl)pentanamide] showed a Ki of 4.3 ± 2 nM.

(Values after patent publication US9505710B2 (priority 2015, dated 2016).)
